Measurements published in patent publication US7737182B2, “Pharmaceuticals for xerosis” (Taisho Pharmaceutical Co., Ltd., priority 2001, dated 2010).

Experiments:
[1] = test system: NC mice induced to manifest dermatitis; assay: Dermatitis score in dermatitis manifesting NC mouse models (Test Example 2); type: in vivo; details: 0.01% in 100% ethanol, 200 μl on dorsal back, seven times a week for 4 weeks
Experimental: By suitably modifying a method known to the skilled artisan (Jpn. J. Pharmacol. 76, 175-183 (1998) Jun Hiroi, et al. Effects of Tacrolimus Hydrate (FK-506) Ointment on Spontaneous Dermatitis in NC/Nga Mice), the following test was conducted in order to confirm the antipruritic effect of compounds of the invention.
Animals: Four-week old SPF NC mice (male) were purchased from Japan SLC; right after their arrival, the SPF NC mice were kept together with dermatitis manifesting male NC mice (older than 20 weeks) for 2 weeks under the following conditions so as to induce itch-evoked scratching behavior. […]
Drug administration: To the dorsal backs of the 20-wk NC mice that were induced to manifest dermatitis as the result of cohabitation with the spontaneous dermatitis manifesting NC mice, 100% ethanol, compound No. 7 (0.01%) dissolved in 100% ethanol or tacrolimus (0.1%) dissolved in 100% ethanol was applied from an Eppendorf pipette in 200-μl doses seven times a week for a period of 4 weeks. […] Dermatitis score: Dermatitic symptoms were observed and measured once a week. […]

[2] = test system: Fifty-week-old BALB/c male mice; assay: Aged mouse skin's barrier function, treatment test, TEWL (Test Example 7); type: in vivo; details: 50-week-old mice; 0.0001% in ethanol, 200 μL, once a day for 3 days
Experimental: Fifty-week-old BALB/c male mice (eight in each group) were shaven in a rostral dorsolateral area of 4 cm^2 (2 cm×2 cm) with electric clippers. Starting on the next day, a solvent (ethanol, 200 μL) or a drug dissolved in the solvent (compound No. 7 or PGD2, each being at 0.0001% in an amount of 200 μL) was applied to the shaven site for 3 days on once-a-day basis.
On the day next to the third application of the solvent or drug, TEWL at the same site was measured with Tewameter (TM210 of Courage & Khazawa, Germany) to evaluate the drug's action.

[3] = test system: guinea pig platelets; assay: Suppression of ADP-induced aggregation of guinea pig platelets; type: cell-based; details: Cavia porcellus; guinea pig platelet-rich plasma, ADP (3 μM)
Experimental: Ten-week-old Hartley male guinea pigs were anesthetized with pentobarbital (30 mg/kg, i.p. injected) and a total of 20 mL of blood was sampled into a syringe containing 2.0 mL of 3.8% sodium citrate. The blood was immediately centrifuged at 900 rpm for 10 minutes at 20° C. to recover the supernatant PRP. By further centrifugation at 3000 rpm for 10 minutes at 20° C., the supernatant PPP was recovered. The platelet count of PRP was diluted with PPP to 30×10^4 platelets/μL for subsequent use.
For platelet aggregation measurement, a platelet aggregation measuring instrument (PAM-8C) was employed. To 274 μL of PRP, 1 μL of a 0.287-95.7 nM test drug solution in ethanol was added and the mixture was incubated at 37° C. for 3 minutes with stirring at 1000 rpm. After the incubation, 25 μL of ADP (3 μM) was added to induce platelet aggregation and a maximum percent aggregation for 5 minutes was measured.
The percent suppression of aggregation by each test drug was calculated from the maximum percent aggregation by the test drug as relative to the maximum percent aggregation by ethanol instead of the test drug solution and IC50 values were determined from the constructed dose-response curve.

[4] = target: T1, prostaglandin D receptor (Homo sapiens, UniProt Q13258); assay: Antagonism by BW A868C of the suppression of ADP-induced human platelet aggregation; type: cell-based; details: final concentration 95.7 nmol/L, human PRP, ADP 3 μmol/L
T1 construct: separate the supernatant (PRP, or platelet-rich plasma); endogenous in cells; host or cells: human platelets (platelet-rich plasma from healthy male donors)
T1 sequence (Q13258 1-359): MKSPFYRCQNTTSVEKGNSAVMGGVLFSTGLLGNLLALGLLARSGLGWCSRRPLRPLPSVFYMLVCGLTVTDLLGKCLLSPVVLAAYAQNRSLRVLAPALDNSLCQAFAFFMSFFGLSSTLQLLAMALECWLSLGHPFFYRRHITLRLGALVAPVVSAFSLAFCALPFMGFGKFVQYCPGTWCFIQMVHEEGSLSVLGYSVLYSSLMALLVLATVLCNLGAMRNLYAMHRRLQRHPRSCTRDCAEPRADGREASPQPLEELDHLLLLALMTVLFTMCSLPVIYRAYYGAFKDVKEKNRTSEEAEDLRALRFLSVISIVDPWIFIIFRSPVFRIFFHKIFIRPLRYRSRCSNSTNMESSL
Experimental: The prostaglandin D receptor selective antagonist used in the test was ((+/−)-3-benzyl-5-(6-carboxyhexyl)-1-(2-cyclohexyl-2-hydroxyethylamino)-hydantoin) (hereunder designated BW A868C) (Sigma-Aldrich Japan K.K.)
BW A868C was diluted with ethanol to final concentrations of 0.03 μmol/L, 0.1 μmol/L, 0.3 μmol/L, 1 μmol/L, 3 μmol/L and 10 μmol/L.
Compound No. 7 and PGD2 were diluted with ethanol to 287 nmol/L and 300 nmol/L, respectively, for subsequent use.
Blood was taken from the cubital veins of human healthy males and sampled into a tube containing 3.13% sodium citrate. The blood sample was centrifuged at 1,000 rpm for 10 minutes at 20° C. to separate the supernatant (PRP, or platelet-rich plasma) and the residue was further centrifuged at 3,000 rpm for 10 minutes at 20° C. to separate the supernatant (PPP, or platelet-poor plasma). The platelet count of PRP was appropriately diluted with PPP to 30×10^4 platelets/μL for subsequent use.
Platelet aggregation was measured with a platelet aggregation measuring instrument (PAM-8C; MC MEDICAL Co., LTD.) by the Born method (Nature, vol. 194, p. 927, 1962). A portion (273 μL) of PRP (for the BW A868C groups, 1 μL of BW A868C was added at varying concentrations) was preincubated at 37° C. for 3 minutes with stirring at 1,000 rpm. After the preincubation, 1 μL of ethanol or a test substance (compound No. 7: final concentration at 95.7 nmol/L; PGD2: final concentration at 1000 nmol/L) was added and the mixture was incubated at 37° C. for 3 minutes with stirring at 1000 rpm. After the incubation, 25 μL of ADP (final concentration at 3 μmol/L) was added to induce platelet aggregation and a maximum percent aggregation for 5 minutes was measured.

`O=C(O)CSCCCC[C@@H]1[C@@H](C#C[C@@H](O)C2CCCCC2)[C@H](O)C[C@H]1Cl` [Compound No. 7] was tested, and the “dermatitis score suppressing action compared to the vehicle group” value [1] was “significant dermatitis score suppressing action”, the “transepidermal water loss (TEWL) compared to the control group” value [2] was “significant decrease in TEWL” and the IC50 [3] was 6.2 ± 2.3 nM. For the same compound, the “platelet aggregation suppressing action compared with control group (ethanol)” value [4] was “significant platelet aggregation suppressing action”.
